Assays:
SMNDC1-GFP αTC1 clones = experiment: Live imaging of endogenously tagged SMNDC1-GFP; assay type: cell-based, mouse
Excerpt: Cell lines with fluorescent tags in the endogenous intron loci of different genes were generated as described in Serebrenik et al., and Reicher et al.[39],[74]. Cells were transiently transfected using Avalanche-Everyday Transfection Reagent with three plasmids in parallel: (1) the donor plasmid containing the artificial intron with splice acceptor and splice donor site, the fluorescent tag GFP or RFP, and a possible correction for the frame of the targeted intron, (2) a pX330 backbone containing Cas9 and the gRNA against the donor plasmid, and (3) a plasmid expressing the gRNA against the target intron (see table below). After 3–5 days, GFP- and/or RFP-positive cells were sorted on a SONY SH800 Cell Sorter to get fluorescent single cell clones. Clones were validated for the correct integration of the intron-tag via comparison of live cell images to publicly available or in-house IF images, genomic DNA PCR amplification of the respective loci, and western blots with antibodies against the target protein and/or the fluorescent tag.
Cells were imaged on a PerkinElmer Opera Phenix automated microscope with 500 ms exposure time in either GFP or RFP channel, or on a Zeiss LSM 980 microscope. For condition-independent identification nuclear markers such as Hoechst or DRAQ5^TM were used.
Images were analyzed using the high-content image acquisition and analysis software Harmony® 4.9 developed by PerkinElmer. First, nuclei were identified in the channel of the nuclear marker (DAPI/ Hoechst/ DRAQ5^TM) (with Method C, Common Threshold 0.75, Area > 10 µm^2). After the identification of nuclei, their corresponding cytoplasm was also identified using the respective nucleic acid marker (with Method A, Individual Threshold 0.15). Even though the highest staining of these nuclear markers is obviously detected in the nucleus they still produce a significant staining of the cytoplasm above background. After defining the respective cell areas, mean intensity in the different channels was measured. Finally, spots were identified with the according “Spots” algorithm (with Method A, Relative Spot Intensity > 0.053, Splitting Sensitivity: 1.0).

SMNDC1 Tudor domain = molecular target: T1, SMNDC1 Tudor domain (Homo sapiens, UniProt O75940); experiment: AlphaScreen, SMNDC1 Tudor domain / sDMA-peptide interaction; conditions: for effect of the structural modification on potency / IC50: structure-activity relationships around compound 1; for selectivity between SMNDC1 and SMN: AlphaScreen SMNDC1 vs SMN
T1 sequence (O75940 65-128): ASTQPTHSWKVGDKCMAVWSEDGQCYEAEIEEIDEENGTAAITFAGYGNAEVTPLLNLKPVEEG
Excerpt: To pharmacologically perturb SMNDC1 function, we set out to identify small molecule inhibitors of SMNDC1’s Tudor domain based on perturbing its interaction with a dimethylarginine peptide. To establish an AlphaScreen[50], we coupled donor beads to purified SMNDC1’s (or SMN’s) Tudor domain via a His-Tag and acceptor beads to a biotinylated peptide corresponding to the C-terminal region of the Small nuclear ribonucleoprotein Sm D3 containing four sDMAs (Fig. 4a). […] To identify ideal concentrations for screening, we performed a cross-titration of Tudor domains and binding peptides (Supplementary Fig. 3b).
(§1) The AlphaScreen was conducted in 20 mM sodium phosphate pH 6.5, 50 mM NaCl, Tween 0.01%, BSA 0.1%. Protein concentration was optimized for each batch of purified protein. Optimal concentration was chosen at the lowest concentration with ~80% of maximum signal. […] In the first step, 10 µl of the protein solution containing either SMNDC1’s or SMN’s Tudor domain coupled to a 6xHis-Tag were distributed to 384-well plates pre-spotted with compounds and controls, shaken and incubated for 30 min at RT. Afterwards, 10 µl of peptide solution was added to each well and incubated for 1 h at RT. Finally, 5 µl of a solution containing both Streptavidin Donor and nickel chelate (Ni-NTA) Acceptor beads was added and again incubated for 1 h at RT.
Category Parameter Description
Assay Type of assay In vitro AlphaScreen / luminescence proximity
Target Tudor domain of SMNDC1
Primary measurement Decrease in luminescence signal reflecting
disruption of heterodimeric complex between
SMNDC1-Tudor domain and a peptide
corresponding to the C-terminus of Small nuclear
ribonucleoprotein Sm D3 containing 4 sDMAs
Key reagents AlphaScreen no-wash assay kit containing
Streptavidin Donor beads and nickel chelate (Ni-
NTA) AlphaScreen Acceptor beads (PerkinElmer
Assay protocol Described in Methods section
Screen Format PerkinElmer OptiPlate-384 well plate
Concentration(s) tested Typically 10 μM (0.1% DMSO)
Plate controls 32 positive control wells (Mitoxantrone, quencher),
32 negative control wells (DMSO)
Reagent/ compound dispensing system Echo 520 Liquid Handler Multidrop™ Combi
Normalization Raw signal was normalized plate-specifically by
correcting row and column-specific mean signals to
the mean signal of the entire plate, each after
removing the highest and lowest 25% of values. Raw
signal was then converted to percent of control
signal, but linear regression to plate-specific mean
signal of DMSO wells (set to 100 percent of control)
and positive control wells (set to 0% of control), after
outlier removal using a Grubbs test.
unspecific quenchers), Secondary screen (with

SMN Tudor domain = SMN Tudor domain (Homo sapiens, UniProt Q16637); experiment: AlphaScreen, SMN Tudor domain / sDMA-peptide interaction
Sequence of SMN Tudor domain (Q16637 84-147): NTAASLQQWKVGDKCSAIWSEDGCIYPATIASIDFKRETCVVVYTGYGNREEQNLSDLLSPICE
Description: To establish an AlphaScreen[50], we coupled donor beads to purified SMNDC1’s (or SMN’s) Tudor domain via a His-Tag and acceptor beads to a biotinylated peptide corresponding to the C-terminal region of the Small nuclear ribonucleoprotein Sm D3 containing four sDMAs (Fig. 4a). […] To identify ideal concentrations for screening, we performed a cross-titration of Tudor domains and binding peptides (Supplementary Fig. 3b).
as §1

IC50 (SMNDC1 Tudor domain) | IC50 (SMN Tudor domain) | Structure (SMILES) | other results
190 nM | 4000 nM | CC1NC(=O)NC1CCCCCC(=O)OCC(=O)c1ccccc1 (centres unmarked) [Fig. 4h] | –
1400 nM | 3900 nM | CCc1ccccc1NC(=O)c1cccc2c1C(=O)N(c1ccc(OC)cc1)C2 [Fig. 4i] | –
1100 nM | 1200 nM | Cc1cc(C)n2c(Nc3ccccc3C)c(-c3ccccn3)nc2n1 [Fig. 4k] | –
9560 nM | 3030 nM | CN(C)S(=O)(=O)c1ccc(C(=O)Nc2nc(-c3ccncc3)cs2)cc1 [compound 4] | –
920 nM | 1700 nM | COc1ccccc1-c1csc(NC(=O)c2ccc(S(=O)(=O)N(C)C)cc2)n1 [compound 5] | –
> 50000 nM | > 50000 nM | O=C(Nc1nc(-c2cccs2)cs1)c1ccc(S(=O)(=O)N2CCCC2)cc1 [compound 7] | –
4050 nM | 8240 nM | N#Cc1cccc(C(=O)Nc2nc(-c3ccc[nH]3)cs2)c1 [compound 8] | effect of the structural modification on potency / IC50 (SMNDC1 Tudor domain): some loss of potency
> 50000 nM | > 50000 nM | CCOC(=O)c1csc(NC(=O)c2ccc(S(=O)(=O)N(C)C)cc2)n1 [compound 9] | effect of the structural modification on potency / IC50 (SMNDC1 Tudor domain): complete loss of activity; SMNDC1-GFP spots within the nucleus (SMNDC1-GFP αTC1 clones; 50 µM, 12–16 h): not observed; SMNDC1 within the nucleus (nuclear SMNDC1-GFP) (SMNDC1-GFP αTC1 clones; 50 µM, 12–16 h): not observed
450 nM | 1260 nM | Cc1sc(NC(=O)c2ccc(S(=O)(=O)N(C)C)cc2)nc1-c1ccccn1 [compound 10] | effect of the structural modification on potency / IC50 (SMNDC1 Tudor domain): without loss of potency
1400 nM | 3520 nM | CCc1sc(NC(=O)c2ccc(S(=O)(=O)N(C)C)cc2)nc1-c1ccccn1 [compound 11] | –
1780 nM | 5350 nM | Nc1csc(-c2ccccn2)n1 [compound 14] | –
> 50000 nM | 15200 nM | Nc1ncc(-c2ccccn2)s1 [compound 15] | selectivity between SMNDC1 and SMN (SMNDC1 Tudor domain): preferentially inhibited SMN over SMNDC1; effect of the structural modification on potency / IC50 (SMNDC1 Tudor domain): significant loss of activity
2120 nM | 2930 nM | O=C(Nc1nc(-c2ccccn2)cs1)C1CC1 [compound 20] | –
1090 nM | 1160 nM | CCn1ccc(C(=O)Nc2nc(-c3ccccn3)cs2)n1 [compound 21] | –
470 nM | 900 nM | Cc1ccc(C(=O)Nc2nc(-c3ccccn3)cs2)o1 [compound 22] | –
810 nM | 1350 nM | Cc1ccnc2nc(C(=O)Nc3nc(-c4ccccn4)cs3)nn12 [compound 24] | –
1100 nM | 3380 nM | O=C(O)c1ccc(C(=O)Nc2nc(-c3ccccn3)cs2)cc1 [compound 26] | –
– | 15400 nM | CC(C)(C)OC(=O)NCCNC(=O)c1ccc(C(=O)Nc2nc(-c3ccccn3)cs2)cc1 [compound 28] | effects on SMNDC1 and SRRM2 localization (SMNDC1-GFP αTC1 clones; double-tagged SMNDC1-GFP SRRM2-RFP αTC1-clone, 50/25/12.5/6.25/3.125 µM): could confirm the effects observed for the non-selective compound 1

The next lines start with the compound.

Structure (SMILES) | IC50 (SMNDC1 Tudor domain) | IC50 (SMN Tudor domain) | other results
OCCCCCCO [1,6-hexanediol, reference compound] | – | – | focal localization of SMNDC1-GFP within the nucleus (SMNDC1-GFP αTC1 clones; live cells, 2.5% or 5%): losing its focal localization within the nucleus
O=C(Nc1nc(-c2ccccn2)cs1)c1ccc(S(=O)(=O)N2CCOCC2)cc1 [Fig. 4e] | 770 nM | 640 nM | –
COc1ccc(Cc2nnc(NC(=O)Cc3cccs3)s2)cc1OC [Fig. 4g] | 2300 nM | 5800 nM | –
CCN(CC)S(=O)(=O)c1ccc(C(=O)Nc2nc(-c3cccnc3)cs2)cc1 [compound 3] | > 50000 nM | > 50000 nM | –
Cc1ccc(-c2csc(NC(=O)c3ccc(S(=O)(=O)N4CCCC4)cc3)n2)o1 [compound 6] | 33700 nM | 29400 nM | –
CN(C)S(=O)(=O)c1ccc(C(=O)Nc2nc(-c3ccccn3)c(Br)s2)cc1 [compound 12] | 1370 nM | 3840 nM | –
Nc1nc(-c2ccccn2)co1 [compound 16] | 20700 nM | > 50000 nM | drop in potency (SMNDC1 Tudor domain; thiazole replaced with analogous oxazole): 40 fold
COc1ccc(CCNc2nc(-c3ccccn3)cs2)cc1OC [compound 17] | 1420 nM | 2000 nM | –
O=S(=O)(Nc1nc(-c2ccccn2)cs1)c1ccccc1 [compound 18] | 1000 nM | 2550 nM | –
N=C(N)Nc1nc(-c2ccccn2)cs1 [compound 19] | 14500 nM | 13200 nM | –
CC(C)(C)CNC(=O)c1ccc(C(=O)Nc2nc(-c3ccccn3)cs2)cc1 [compound 25] | 1470 nM | 9820 nM | selectivity between SMNDC1 and SMN (SMNDC1 Tudor domain): increased selectivity for SMNDC1 over SMN
O=C(Nc1nc(-c2ccccn2)cs1)c1ccc(-n2cnnn2)cc1 [compound 27] | 730 nM | 1230 nM | –
